# Experimental data taken from patent US8637683B2, “Macrocyclic lactone derivatives for the treatment of cancer” (Piramal Enterprises Limited, priority 2009, dated 2014).
# Legend:
# Assay type in all cases: cell-based, human
# BXF 1218L = assay: Monolayer assay (modified propidium iodide), BXF 1218L; conditions: Bladder, 4 days of treatment
# From the text: (§1) Oncotest GmbH, Germany's proprietary tumor cell line panel comprises 40 cell lines. These cell lines were derived from 15 different tumor histotypes, each represented by 1 to 6 different cell lines. Cell lines were established from cancer of the bladder (3), colon (4), head and neck (1), lung (6), breast (3), pancreas (3), prostate (4), ovary (2), kidney (3), liver (1), stomach (1) and the uteri body (1), as well as from melanoma (3), sarcoma (2) and pleuramesothelioma (3). Out of these 40 cell lines, 24 cell lines were established at Oncotest, from patient-derived tumor xenografts. […]
# (§2) Stock solutions of the test compounds (330 μg/mL in DMSO) were prepared and stored in small aliquots (200 μL) at −20° C. […] Each concentration was evaluated in triplicate. […]
# (§3) Cells were plated in 96-well flat-bottom microtiter plates at a cell density of 4,000 to 10,000 cells/well. […] To measure the viable cell number, the remaining adherent cells were killed and permeabilized by repeated freezing and thawing and PI fluorescence was measured using the Cytofluor 4000 microplate reader (excitation λ=530 nm, emission λ=620 nm), which was a measure for the number of cells which survived treatment. […] IC-values were calculated based on the principle of linear two-point curve fit. […]
# BXF 1352L = assay: Monolayer assay (modified propidium iodide), BXF 1352L; conditions: Bladder, 4 days of treatment
# From the text: as §1, §2, §3
# HT 29 = assay: Monolayer assay (modified propidium iodide), HT 29; conditions: HT 29, Colon, 4 days of treatment
# From the text: as §1, §2, §3
# LXF 1121L = assay: Monolayer assay (modified propidium iodide), LXF 1121L; conditions: Lung, 4 days of treatment
# From the text: as §1, §2, §3
# LXF 529L = assay: Monolayer assay (modified propidium iodide), LXF 529L; conditions: Lung, 4 days of treatment
# From the text: as §1, §2, §3
# LXF 629L = assay: Monolayer assay (modified propidium iodide), LXF 629L; conditions: Lung, 4 days of treatment
# From the text: as §1, §2, §3
# MAXF 401NL = assay: Monolayer assay (modified propidium iodide), MAXF 401NL; conditions: Mammary, 4 days of treatment
# From the text: as §1, §2, §3
# MEXF 276L = assay: Monolayer assay (modified propidium iodide), MEXF 276L; conditions: Melanoma, 4 days of treatment
# From the text: as §1, §2, §3
# OVXF 899L = assay: Monolayer assay (modified propidium iodide), OVXF 899L; conditions: Ovarian, 4 days of treatment
# From the text: as §1, §2, §3
# PAXF 1657L = assay: Monolayer assay (modified propidium iodide), PAXF 1657L; conditions: Pancreas, 4 days of treatment
# From the text: as §1, §2, §3
# PANC 1 = assay: Monolayer assay (modified propidium iodide), PANC 1; conditions: PANC 1, Pancreas, 4 days of treatment
# From the text: as §1, §2, §3
# 22RV1 = assay: Monolayer assay (modified propidium iodide), 22RV1; conditions: 22RV1, Prostate, 4 days of treatment
# From the text: as §1, §2, §3
# DU 145 = assay: Monolayer assay (modified propidium iodide), DU 145; conditions: DU 145, Prostate, 4 days of treatment
# From the text: as §1, §2, §3
# PC3M = assay: Monolayer assay (modified propidium iodide), PC3M; conditions: Prostate, 4 days of treatment
# From the text: as §1, §2, §3
# PXF 1118L = assay: Monolayer assay (modified propidium iodide), PXF 1118L; conditions: Pleuramesothelioma, 4 days of treatment
# From the text: as §1, §2, §3
# PXF 698L = assay: Monolayer assay (modified propidium iodide), PXF 698L; conditions: Pleuramesothelioma, 4 days of treatment
# From the text: as §1, §2, §3
# RXF 1781L = assay: Monolayer assay (modified propidium iodide), RXF 1781L; conditions: Renal, 4 days of treatment
# From the text: as §1, §2, §3
# TE671 = assay: Monolayer assay (modified propidium iodide), TE671; conditions: TE671, Sarcoma, 4 days of treatment
# From the text: as §1, §2, §3
smiles,measurement,setting,value
"C/C=C/C(O)C(C)/C=C/C(=N\O)C(C)C(O)C(C)C1OC(=O)/C(OC)=C/C(C)=C/C(C)C(O)C(CC)C(O)C(C)C/C(C)=C/C=C/C1OC (stereo not drawn) [Example 7, (3Z,5E,13E,15E)-18-((5Z,6E,10E)-3,9-Dihydroxy-5-(hydroxymino)-4,8-dimethyldodeca-6,10-dien-2-yl)-9-ethyl-8,10-dihydroxy-3,17-dimethoxy-5,7,11,13-tetramethyl oxacyclooctadeca-3,5,13,15-tetraen-2-one]",IC70,BXF 1218L,46.0 ng/mL
same,IC50,"BXF 1218L; Homo sapiens, 96 h",4 ng/mL
same,IC70,BXF 1352L,2.0 ng/mL
same,IC50,"BXF 1352L; Homo sapiens, 96 h",0.2 ng/mL
same,IC70,HT 29,0.9 ng/mL
same,IC50,"HT 29; Homo sapiens, 96 h",0.4 ng/mL
same,IC50,"LXF 1121L; Homo sapiens, 96 h",1 ng/mL
same,IC70,LXF 1121L,5.0 ng/mL
same,IC50,"LXF 529L; Homo sapiens, 96 h",1 ng/mL
same,IC70,LXF 529L,7.0 ng/mL
same,IC50,"LXF 629L; Homo sapiens, 96 h",0.1 ng/mL
same,IC70,LXF 629L,1.0 ng/mL
same,IC50,"MAXF 401NL; Homo sapiens, 96 h",3 ng/mL
same,IC70,MAXF 401NL,8.0 ng/mL
same,IC50,"MEXF 276L; Homo sapiens, MEXF276L, 96 h",1 ng/mL
same,IC70,MEXF 276L,251.0 ng/mL
same,IC50,"OVXF 899L; Homo sapiens, 96 h",8 ng/mL
same,IC70,OVXF 899L,31.0 ng/mL
same,IC50,"PAXF 1657L; Homo sapiens, 96 h",8 ng/mL
same,IC70,PAXF 1657L,>1000 ng/mL
same,IC50,"PANC 1; Homo sapiens, 96 h",0.6 ng/mL
same,IC70,PANC 1,17.0 ng/mL
same,IC70,22RV1,9.0 ng/mL
same,IC50,"22RV1; Homo sapiens, 96 h",4 ng/mL
same,IC70,DU 145,0.6 ng/mL
same,IC50,"DU 145; Homo sapiens, 96 h",< 0.1 ng/mL
same,IC50,"PC3M; Homo sapiens, PC-3M, 96 h",0.4 ng/mL
same,IC70,PC3M,3.0 ng/mL
same,IC50,"PXF 1118L; Homo sapiens, 96 h",432 ng/mL
same,IC70,PXF 1118L,>1000 ng/mL
same,IC50,"PXF 698L; Homo sapiens, 96 h",0.4 ng/mL
same,IC70,PXF 698L,2.0 ng/mL
same,IC50,"RXF 1781L; Homo sapiens, 96 h",7 ng/mL
same,IC70,RXF 1781L,28.0 ng/mL
same,IC50,"TE671; Homo sapiens, TE-671, 96 h",2 ng/mL
same,IC70,TE671,5.0 ng/mL
